Data set [1] addresses T1, c-Met (cytoplasmic domain) (Homo sapiens, UniProt P08581).
T1 construct: Reactions were initiated with 30 ng/mL c-Met (cytoplasmic domain, Invitrogen Corporation #PV3143); purchased Invitrogen Corporation PV3143
Nature of the data set: c-Met Kinase Assay (ELISA/TRF, PLC-γ substrate). It counts as biochemical. Conditions: 3 μM ATP (Km level); read-out: c-Met Kinase Inhibition (IC50). The procedure, abridged:
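c-Met cytoplasmic domain (30 ng/mL) phosphorylates plate-coated GST–PLC-γ for 15 min at 37 °C. Phosphotyrosine detected with Eu-labeled PT66 antibody by time-resolved fluorescence. IC50 from variable-slope sigmoidal fit of % inhibition vs log concentration.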

The target in data set [2] is baculovirus-expressed ALK (Homo sapiens, UniProt Q9UM73). Briefly: ALK Kinase Assay (ELISA/TRF, PLC-γ substrate). Note: 1 µM ATP (Km level). Particulars: read-out: ALK Kinase Inhibition (IC50). It counts as biochemical. The procedure, abridged:
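An ELISA adapted from a trkA format was used: wells carried GST-fused PLC-γ substrate, and enzyme addition (30 ng/ml ALK) started a 15-minute reaction at 37° C.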
(In general: An ELISA detects its analyte on a solid surface through an enzyme-linked reagent.)

The structures appear in SMILES notation. Bounds are passed on as bounds.

T1 sequence (P08581 956-1390 limits assumed): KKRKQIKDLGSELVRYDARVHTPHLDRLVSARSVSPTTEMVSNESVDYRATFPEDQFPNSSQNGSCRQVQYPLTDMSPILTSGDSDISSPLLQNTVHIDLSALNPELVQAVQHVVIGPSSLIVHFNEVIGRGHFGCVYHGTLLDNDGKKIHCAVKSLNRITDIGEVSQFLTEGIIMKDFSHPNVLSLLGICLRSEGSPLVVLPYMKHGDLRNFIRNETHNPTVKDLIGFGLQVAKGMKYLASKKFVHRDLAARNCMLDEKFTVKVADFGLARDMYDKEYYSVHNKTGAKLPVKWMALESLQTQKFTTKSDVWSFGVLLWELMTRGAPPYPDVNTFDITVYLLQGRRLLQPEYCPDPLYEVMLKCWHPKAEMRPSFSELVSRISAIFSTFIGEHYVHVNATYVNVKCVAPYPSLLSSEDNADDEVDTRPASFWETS
baculovirus-expressed ALK, sequence (Q9UM73 19-1620): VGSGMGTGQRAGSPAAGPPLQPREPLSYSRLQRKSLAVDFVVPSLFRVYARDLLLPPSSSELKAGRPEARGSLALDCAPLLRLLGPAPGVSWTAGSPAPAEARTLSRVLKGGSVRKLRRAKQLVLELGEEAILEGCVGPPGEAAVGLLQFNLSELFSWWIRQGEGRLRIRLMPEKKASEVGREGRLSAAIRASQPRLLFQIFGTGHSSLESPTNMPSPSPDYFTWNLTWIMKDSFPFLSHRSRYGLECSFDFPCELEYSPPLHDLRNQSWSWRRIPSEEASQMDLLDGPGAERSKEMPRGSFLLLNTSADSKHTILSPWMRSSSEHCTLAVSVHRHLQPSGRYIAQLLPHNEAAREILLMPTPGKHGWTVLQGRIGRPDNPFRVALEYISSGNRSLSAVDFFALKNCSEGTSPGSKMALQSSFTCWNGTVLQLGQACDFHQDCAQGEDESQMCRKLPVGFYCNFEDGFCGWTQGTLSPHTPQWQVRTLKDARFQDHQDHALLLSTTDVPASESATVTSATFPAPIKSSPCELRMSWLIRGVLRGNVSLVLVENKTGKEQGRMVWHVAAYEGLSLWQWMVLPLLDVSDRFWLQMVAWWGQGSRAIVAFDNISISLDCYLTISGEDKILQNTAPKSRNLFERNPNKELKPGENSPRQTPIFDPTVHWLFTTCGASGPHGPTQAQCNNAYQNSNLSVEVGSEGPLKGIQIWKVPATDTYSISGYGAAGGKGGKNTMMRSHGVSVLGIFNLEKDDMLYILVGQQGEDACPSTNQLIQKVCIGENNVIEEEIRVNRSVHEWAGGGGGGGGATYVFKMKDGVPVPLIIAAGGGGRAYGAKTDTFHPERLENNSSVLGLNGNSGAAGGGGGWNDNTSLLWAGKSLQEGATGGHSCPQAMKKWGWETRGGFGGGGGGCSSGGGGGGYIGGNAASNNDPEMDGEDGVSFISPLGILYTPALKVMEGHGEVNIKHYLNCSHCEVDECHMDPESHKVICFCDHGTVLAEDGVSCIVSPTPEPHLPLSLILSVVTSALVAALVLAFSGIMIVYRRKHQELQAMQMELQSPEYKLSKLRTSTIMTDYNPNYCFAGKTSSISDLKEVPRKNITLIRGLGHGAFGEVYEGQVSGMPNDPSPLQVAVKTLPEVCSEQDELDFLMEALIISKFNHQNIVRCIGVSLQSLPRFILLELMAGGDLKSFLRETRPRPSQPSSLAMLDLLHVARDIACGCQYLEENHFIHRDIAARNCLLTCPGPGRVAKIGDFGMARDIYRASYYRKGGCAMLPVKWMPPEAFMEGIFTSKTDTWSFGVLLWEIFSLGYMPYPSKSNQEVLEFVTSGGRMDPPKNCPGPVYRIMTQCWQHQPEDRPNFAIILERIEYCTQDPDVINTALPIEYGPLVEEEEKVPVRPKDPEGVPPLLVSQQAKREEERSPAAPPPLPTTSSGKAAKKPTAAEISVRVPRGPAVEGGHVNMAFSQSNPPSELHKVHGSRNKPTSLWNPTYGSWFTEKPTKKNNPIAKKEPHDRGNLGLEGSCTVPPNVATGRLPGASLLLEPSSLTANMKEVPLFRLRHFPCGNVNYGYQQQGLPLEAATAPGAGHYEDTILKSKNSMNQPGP

In the case of `O=C(O)c1ccc(-c2cnc3c(c2)N(Cc2cc(F)ccc2F)C(=O)CN3)cc1` [Example 56, 4-[1-(2,5-Difluorobenzyl)-2-oxo-1,2,3,4-tetrahydropyrido[2,3-b]pyrazin-7-yl]benzoic acid], the melting point – broadly, the temperature of the solid-liquid transition – was greater than 300 °C. Moreover, the IC50 (usually the concentration that gives 50% inhibition) in data set [1] lay within 10 to 100 µM. The IC50 in data set [2] is 1 to 10 µM.
The like results for `CN1CCN(C(=O)c2ccc(-c3cnc4c(c3)N(Cc3cc(F)ccc3F)C(=O)CN4)cc2)CC1` [Example 59, 1-(2,5-Difluorobenzyl)-7-[4-(4-methylpiperazine-1-carbonyl)phenyl]-3,4-dihydro-1H-pyrido[2,3-b]pyrazin-2-one] were, in that order, 223 °C (dec.), 10 to 100 µM and 0.1 to 1 µM.
The like results for `O=C(c1ccc(-c2cnc3c(c2)N(Cc2cc(F)ccc2F)C(=O)CN3)cc1)N1CCC(N2CCCC2)CC1` [Example 60, 1-(2,5-Difluorobenzyl)-7-[4-(4-(pyrrolidin-1-yl)piperidine-1-carbonyl)phenyl]-3,4-dihydro-1H-pyrido[2,3-b]pyrazin-2-one] were, in that order, 186 °C (dec.), 1 to 10 µM and 0.1 to 1 µM.
The like results for `Fc1ccc(F)c(CN2CCNc3ncc(I)cc32)c1` [Example 62, 1-(2,5-Difluorobenzyl)-7-iodo-1,2,3,4-tetrahydropyrido[2,3-b]pyrazine] were, in that order, 175 °C, 10 to 100 µM and 1 to 10 µM.
`CCOC(=O)c1ccc(-c2cnc3c(c2)N(Cc2cc(F)ccc2F)CCN3)cc1` [Example 63, 4-[1-(2,5-Difluorobenzyl)-1,2,3,4-tetrahydropyrido[2,3-b]pyrazin-7-yl]benzoic acid ethyl ester] returned a melting point of 173 to 174 °C. The IC50 in data set [1] is greater than 100 µM. The IC50 in data set [2] is 0.1 to 1 µM.
The like results for `O=C(O)c1ccc(-c2cnc3c(c2)N(Cc2cc(F)ccc2F)CCN3)cc1` [Example 64, 4-[1-(2,5-Difluorobenzyl)-1,2,3,4-tetrahydropyrido[2,3-b]pyrazin-7-yl]benzoic acid] were, in that order, greater than 300 °C, 10 to 100 µM and 0.1 to 1 µM.
The like results for `CN1CCN(C(=O)c2ccc(-c3cnc4c(c3)N(Cc3cc(F)ccc3F)CCN4)cc2)CC1` [Example 67, {4-[1-(2,5-Difluorobenzyl)-1,2,3,4-tetrahydropyrido[2,3-b]pyrazin-7-yl]phenyl}-(4-methylpiperazin-1-yl)methanone] were, in that order, 180 °C, 1 to 10 µM and 0.1 to 1 µM.
The like results for `Fc1ccc(F)c(CN2CCNc3ncc(-c4ccc(N5CCOCC5)nc4)cc32)c1` [Example 70, 1-(2,5-Difluorobenzyl)-7-(6-morpholin-4-yl-pyridin-3-yl)-1,2,3,4-tetrahydropyrido[2,3-b]pyrazine] were, in that order, 206 to 207 °C, 10 to 100 µM and 0.1 to 1 µM.
Regarding `N#Cc1ccc(-c2cnc3c(c2)N(Cc2cc(F)ccc2F)CCN3)cn1` [Example 71, 5-[1-(2,5-Difluorobenzyl)-1,2,3,4-tetrahydropyrido[2,3-b]pyrazin-7-yl]-pyridine-2-carbonitrile], the melting point is 200 °C (dec.). Besides, in data set [1], the IC50 was greater than 100 µM. Further, the IC50 in data set [2] lay in the range of 0.1 to 1 µM.
The like results for `CCOC(=O)c1cncc(-c2cnc3c(c2)N(Cc2cc(F)ccc2F)CCN3)c1` [Example 73, 5-[1-(2,5-Difluorobenzyl)-1,2,3,4-tetrahydropyrido[2,3-b]pyrazin-7-yl]-nicotinic acid ethyl ester] were, in that order, 169 to 172 °C, 10 to 100 µM and 0.1 to 1 µM.
The like results for `O=C(O)c1cncc(-c2cnc3c(c2)N(Cc2cc(F)ccc2F)CCN3)c1` [Example 74, 5-[1-(2,5-Difluorobenzyl)-1,2,3,4-tetrahydropyrido[2,3-b]pyrazin-7-yl]-nicotinic acid] were, in that order, 255 to 260 °C, 10 to 100 µM and 10 to 100 µM.
The like results for `CCOC(=O)c1cnc2c(c1)N(Cc1cc(F)ccc1F)CCN2` [Example 75, 1-(2,5-Difluorobenzyl)-1,2,3,4-tetrahydropyrido[2,3-b]pyrazine-7-carboxylic acid ethyl ester] were, in that order, 124 to 125 °C, 10 to 100 µM and 0.1 to 1 µM.
As to `N#Cc1cnc2c(c1)N(Cc1cc(F)ccc1F)CCN2` [Example 77, 1-(2,5-Difluorobenzyl)-1,2,3,4-tetrahydropyrido[2,3-b]pyrazine-7-carbonitrile], the melting point was in the range of 204 to 206 °C. For the same compound, the IC50 in data set [1] is greater than 100 µM. Besides, the IC50 in data set [2] was in the range of 1 to 10 µM.
With `O=C(O)c1cnc2c(c1)N(Cc1cc(F)ccc1F)CCN2` [Example 78, 1-(2,5-Difluorobenzyl)-1,2,3,4-tetrahydropyrido[2,3-b]pyrazine-7-carboxylic acid], the melting point is 231 °C (dec.). Moreover, the IC50 in data set [1] is greater than 100 µM. Besides, the IC50 in data set [2] was greater than 100 µM.
For the compound `O=C1CNc2ncc(I)cc2N1Cc1cc(F)c(F)cc1F` [Example 81, 7-Iodo-1-(2,4,5-trifluorobenzyl)-3,4-dihydro-1H-pyrido[2,3-b]pyrazin-2-one], the melting point was in the range of 227 to 228 °C. Besides, in data set [1], the IC50 was greater than 100 µM. The IC50 in data set [2] was greater than 100 µM.
The compound `Fc1cc(F)c(CN2CCNc3ncc(I)cc32)cc1F` [Example 82, 7-Iodo-1-(2,4,5-trifluorobenzyl)-1,2,3,4-tetrahydropyrido[2,3-b]pyrazine] gave a melting point of 154 to 156 °C. Also, in data set [1], the IC50 is 10 to 100 µM. Also, in data set [2], the IC50 is greater than 100 µM.
The like results for `O=C1CNc2ncc(-c3ccc(C(=O)N4CCC[C@H]4CN4CCCC4)cc3)cc2N1Cc1cc(F)c(F)cc1F` [Example 83, 7-[4-((S)-2-[(pyrrolidin-1-yl)methyl]pyrrolidine-1-carbonyl)phenyl]-1-(2,4,5-trifluorobenzyl)-3,4-dihydro-1H-pyrido[2,3-b]pyrazin-2-one] were, in that order, 117 to 118 °C, 10 to 100 µM and 1 to 10 µM.
The like results for `CN1CCN(C(=O)c2ccc(-c3cnc4c(c3)N(Cc3cc(F)c(F)cc3F)C(=O)CN4)cc2)CC1` [Example 85, 7-[4-(4-Methylpiperazine-1-carbonyl)phenyl]-1-(2,4,5-trifluorobenzyl)-3,4-dihydro-1H-pyrido[2,3-b]pyrazin-2-one] were, in that order, 238 °C, 10 to 100 µM and 10 to 100 µM.
The like results for `CN1CCN(C(=O)c2ccc(-c3cnc4c(c3)N(C(=O)c3cc(F)ccc3F)CCN4)cc2)CC1` [Example 88, (2,5-Difluorophenyl)-{7-[4-(4-methylpiperazine-1-carbonyl)phenyl]-3,4-dihydro-2H-pyrido[2,3-b]pyrazin-1-yl}-methanone] were, in that order, 201 to 203 °C, 1 to 10 µM and 10 to 100 µM.
The compound `CC1(C)Nc2ncc(I)cc2NC1=O` [Example 91, 7-Iodo-3,3-dimethyl-3,4-dihydro-1H-pyrido[2,3-b]pyrazin-2-one] yielded a melting point greater than 300 °C. For the same compound, in data set [1], the IC50 was in the range of 10 to 100 µM. For the same compound, the IC50 in data set [2] is greater than 100 µM.
The compound `CC1(C)Nc2ncc(I)cc2N(Cc2cc(F)ccc2F)C1=O` [Example 92, 1-(2,5-Difluorobenzyl)-7-iodo-3,3-dimethyl-3,4-dihydro-1H-pyrido[2,3-b]pyrazin-2-one] yielded a melting point of 198 to 201 °C. Further, in data set [1], the IC50 is greater than 100 µM. Also, the IC50 in data set [2] is greater than 100 µM.
In turn, `CC1(C)CN(Cc2cc(F)ccc2F)c2cc(I)cnc2N1` [Example 93, 1-(2,5-Difluorobenzyl)-7-iodo-3,3-dimethyl-1,2,3,4-tetrahydropyrido[2,3-b]pyrazine] registered a melting point of 168 to 169 °C. For the same compound, in data set [1], the IC50 is greater than 100 µM. Besides, in data set [2], the IC50 was greater than 100 µM.
The compound `CC1(C)Nc2ncc(-c3ccc(C(=O)N4CCC[C@H]4CN4CCCC4)cc3)cc2N(Cc2cc(F)ccc2F)C1=O` [Example 94, 1-(2,5-Difluorobenzyl)-3,3-dimethyl-7-[4-((S)-2-[(pyrrolidin-1-yl)methyl]pyrrolidine-1-carbonyl)phenyl]-3,4-dihydro-1H-pyrido[2,3-b]pyrazin-2-one] came in with a melting point of 171 to 172 °C. In addition, the IC50 in data set [1] is 10 to 100 µM. Also, the IC50 in data set [2] was 1 to 10 µM.
`CN1CCN(C(=O)c2ccc(-c3cnc4c(c3)N(Cc3cc(F)ccc3F)C(=O)C(C)(C)N4)cc2)CC1` [Example 95, 1-(2,5-Difluorobenzyl)-3,3-dimethyl-7-[4-(4-methylpiperazine-1-carbonyl)phenyl]-3,4-dihydro-1H-pyrido[2,3-b]pyrazin-2-one] registered a melting point of 204 to 206 °C. Moreover, the IC50 in data set [1] was 10 to 100 µM. For the same compound, the IC50 in data set [2] lay within 1 to 10 µM.
The like results for `CC1(C)CN(Cc2cc(F)ccc2F)c2cc(-c3ccc(C(=O)N4CCC[C@H]4CN4CCCC4)cc3)cnc2N1` [Example 96, {4-[1-(2,5-Difluorobenzyl)-3,3-dimethyl-1,2,3,4-tetrahydropyrido[2,3-b]pyrazin-7-yl]phenyl}-((S)-2-((pyrrolidin-1-yl)methyl)pyrrolidin-1-yl)methanone] were, in that order, 74 to 77 °C, 10 to 100 µM and 1 to 10 µM.

These data come from US7601716B2, “Pyridopyrazines and derivatives thereof as ALK and c-Met inhibitors” (Cephalon, Inc., priority 2006, dated 2009).
